Measurements as given in publication PMC7584476, “Safety and efficacy of BAY1436032 in IDH1-mutant AML: phase I study results” (Leukemia, 2020).
Like-named read-outs stand apart in the source and are kept apart here.

Legend:
[1] = Plasma pharmacokinetics of BAY1436032 (LC-MS/MS); format: in vivo, human; settings: for AUC(0-t) / Cmax: geometric mean (CV)
Experimental: Plasma samples were collected at various times on C1-D1, C1-D2, C1-D8, and C1-D15 and stored frozen for PK assessments. Collection times on these days are indicated on Supplementary Fig. S1 (C1-D8 PK results are not shown). The evening dose of BAY1436032 was withheld on C1-D1 to facilitate assessment of the 24-h single-dose time point on C1-D2. Quantitative analysis of BAY1436032 (free acid) in plasma was performed as described in Supplementary Methods.
(§1) 13 Pharmacokinetics: Determination of BAY1436032 in plasma
(§2) 14 Quantitative analysis of BAY1436032 (free acid) in plasma was determined using a fully
(§3) 15 validated method after protein precipitation with acetonitrile/0.4 mM ammonium acetate
(§4) 16 (pH 3, 80:20, v/v) containing the internal standard, followed by separation employing
(§5) 17 high-pressure liquid chromatography-tandem mass spectrometric detection (LC-MS/MS).
(§6) 18 The method validation and sample analysis were performed in compliance with the
(§7) 19 pertinent guidelines on Bioanalytical Method Validation of FDA (2001) and EMA (2011).
(§8) 20 Samples were stored at or below -15°C and analyzed within 135 days of sampling.
(§9) 22 concentration (C max), area under the concentration versus time curve from time 0 to
(§10) 23 8 hours (AUC(0-8)), and AUC from time 0 to 12 hours (AUC(0-12)) were calculated using the
(§11) 24 model-independent (compartment -free) method. The dose proportionality in the 300 mg
(§12) 25 to 1500 mg dose range was evaluated by performing explorative analyses of variance
(§13) 26 (ANOVA) on the log -transformed values of Cmax and AUC(0-12), calculated from single and
27 continuous BID dosing PK profiles. […]

[2] = Stability of BAY1436032 in stored plasma samples; format: in vitro ADME, human; settings: at or below -15°C, 135 days
Experimental: as §1, §2, §3, §4, §5, §6, §7, §8, §9, §10, §11, §12, §13
27 continuous BID dosing PK profiles.
29 Pharmacodynamics: Determination of R -2HG in plasma
30 Plasma R-2HG concentrations were measured by Eurofins using a qualified LC -MS/MS
31 method with a lower limit of quantification (LLOQ) of 25 ng/mL. For assay validation […]

SMILES: C[C@H]1C[C@@H](n2c(Nc3ccc(OC(F)(F)F)cc3)nc3cc(CCC(=O)O)ccc32)CC(C)(C)C1 [BAY1436032]
- Accumulation ([1]; C1-D15, continuous BID): Minimal accumulation
- Dose-proportionality of exposure ([1]; continuous BID administration): dose-proportionality was not apparent
- AUC(0-t) ([1]; human, plasma, oral, 300 mg, C1-D1 single-dose, 300 mg, n=7, read-out: AUC(0-8)): 6600 ng·h/mL
- AUC(0-t) ([1]; human, plasma, oral, 300 mg, C1-D1 single-dose, 300 mg, n=7, read-out: AUC(0-12)): 7440 ng·h/mL
- Cmax ([1]; human, plasma, oral, 300 mg, C1-D1 single-dose, 300 mg, n=7, read-out: Cmax): 2000 ng/mL
- AUC(0-t) ([1]; human, plasma, oral, 300 mg, C1-D15 continuous BID, 300 mg BID, n=5, read-out: AUC(0-8)md): 5920 ng·h/mL
- AUC(0-t) ([1]; human, plasma, oral, 300 mg, C1-D15 continuous BID, 300 mg BID, n=5, read-out: AUC(0-12)md): 6750 ng·h/mL
- Cmax ([1]; human, plasma, oral, 300 mg, C1-D15 continuous BID, 300 mg BID, n=6, read-out: Cmax,md): 1880 ng/mL
- AUC(0-t) ([1]; human, plasma, oral, 600 mg, C1-D1 single-dose, 600 mg, n=4, read-out: AUC(0-8)): 12500 ng·h/mL
- AUC(0-t) ([1]; human, plasma, oral, 600 mg, C1-D1 single-dose, 600 mg, n=4, read-out: AUC(0-12)): 15200 ng·h/mL
- Cmax ([1]; human, plasma, oral, 600 mg, C1-D1 single-dose, 600 mg, n=4, read-out: Cmax): 3200 ng/mL
- AUC(0-t) ([1]; human, plasma, oral, 600 mg, C1-D15 continuous BID, 600 mg BID, n=3, read-out: AUC(0-8)md): 22300 ng·h/mL
- AUC(0-t) ([1]; human, plasma, oral, 600 mg, C1-D15 continuous BID, 600 mg BID, n=3, read-out: AUC(0-12)md): 25400 ng·h/mL
- Cmax ([1]; human, plasma, oral, 600 mg, C1-D15 continuous BID, 600 mg BID, n=4, read-out: Cmax,md): 5050 ng/mL
- AUC(0-t) ([1]; human, plasma, oral, 1200 mg, C1-D1 single-dose, 1200 mg, n=7, read-out: AUC(0-8)): 20700 ng·h/mL
- AUC(0-t) ([1]; human, plasma, oral, 1200 mg, C1-D1 single-dose, 1200 mg, n=7, read-out: AUC(0-12)): 24800 ng·h/mL
- Cmax ([1]; human, plasma, oral, 1200 mg, C1-D1 single-dose, 1200 mg, n=7, read-out: Cmax): 5310 ng/mL
- AUC(0-t) ([1]; human, plasma, oral, 1200 mg, C1-D15 continuous BID, 1200 mg BID, n=5, read-out: AUC(0-12)md): 21800 ng·h/mL
- AUC(0-t) ([1]; human, plasma, oral, 1200 mg, C1-D15 continuous BID, 1200 mg BID, n=6, read-out: AUC(0-8)md): 22900 ng·h/mL
- Cmax ([1]; human, plasma, oral, 1200 mg, C1-D15 continuous BID, 1200 mg BID, n=7, read-out: Cmax,md): 6050 ng/mL
- AUC(0-t) ([1]; human, plasma, oral, 1500 mg, C1-D1 single-dose, 1500 mg, n=9, read-out: AUC(0-8)): 42200 ng·h/mL
- AUC(0-t) ([1]; human, plasma, oral, 1500 mg, C1-D1 single-dose, 1500 mg, n=9, read-out: AUC(0-12)): 50300 ng·h/mL
- Cmax ([1]; human, plasma, oral, 1500 mg, C1-D1 single-dose, 1500 mg, n=9, read-out: Cmax): 9820 ng/mL
- AUC(0-t) ([1]; human, plasma, oral, 1500 mg, C1-D15 continuous BID, 1500 mg BID, n=3, read-out: AUC(0-12)md): 44500 ng·h/mL
- AUC(0-t) ([1]; human, plasma, oral, 1500 mg, C1-D15 continuous BID, 1500 mg BID, n=5, read-out: AUC(0-8)md): 34000 ng·h/mL
- Cmax ([1]; human, plasma, oral, 1500 mg, C1-D15 continuous BID, 1500 mg BID, n=7, read-out: Cmax,md): 9460 ng/mL
- Tmax ([1]; human, plasma, oral, single-dose and continuous BID administration, read-out: Time of maximum plasma concentrations): 3 to 4 h
- Half-life ([1]; in vivo): relatively short
- Time at which plasma concentrations were detectable ([1]; single oral administration): 30 min
- Increase of exposure with dose ([1]; single-dose, 300 to 1500 mg, dose-proportional manner): 1.6–2.0 fold
- Stability in stored plasma samples [2]: stable
